“Also recorded” adds a separate entry of the source.
Experiments:
[1] = tested on: SARS CoV-2 (WA1 strain); assay type: in vivo, K18-hACE2-Tg mice
[2] = tested on: SARS CoV-2 (WA1 strain); assay: SARS CoV-2-infected human precision-cut lung slices, IL-8 in culture supernatants; assay type: cell-based; settings: 100 μM CDP-choline added daily, 4×10^5 TCID50 SARS CoV-2 WA1, 2 and 3 dpi, vs. saline
Description: CDP-choline reduces SARS CoV-2-induced inflammation in vitro.

[3] = tested on: influenza; assay: Antiviral effect against influenza
[4] = cited from earlier work
[5] = administered parenterally; cited from earlier work
[6] = multiple human clinical trials; cited from earlier work
[7] = ultimately excreted in expired CO2 and via urine; cited from earlier work
[8] = male K18-hACE2-Tg mice, 5 mg/kg i.p. daily, 4 dpi, relative to infected saline-treated mice
[9] = male K18-hACE2-Tg mice, 10^5 TCID50 SARS CoV-2 WA1, 5 mg/kg i.p. daily 1-3 dpi, read at 4 dpi

Compound: C[N+](C)(C)CCOP(=O)(O)OP(=O)(O)OC[C@H]1O[C@@H](n2ccc(N)nc2=O)C(O)C1O (stereo partly shown) [CDP-choline, Cytidine diphosphate-choline]
- reduction of whole lung ccl-3/mip-1a gene expression ([1]; CoV-2-infected male K18-hACE2-Tg mice): > 5 fold
- reduction of whole lung il-6 gene expression [1, 8]: > 5 fold
- reduction of whole lung kc/cxcl-1 gene expression [1, 8]: > 5 fold
- SARS CoV-2 replication in the lungs (in words) ([1]; male K18-hACE2-Tg mice, 5 mg/kg i.p. daily, 4 dpi, vs. saline, 5 mg/kg): significantly reduces; also recorded: significantly decreased
- SARS CoV-2-induced bradycardia (heart rate) [1, 9]: prevents development; also recorded: completely prevented; also recorded: attenuated
- SARS CoV-2-induced hypoxemia (carotid arterial % O2 saturation, SaO2) [1, 9]: prevents development; also recorded: completely prevented; also recorded: reversed
- reduction of viral replication ([1]; male K18-hACE2-Tg mice, daily post-infection CDP-choline): 0.5 logs
- production of IL-8 by SARS CoV-2-infected human precision-cut lung slices [2]: reduced production; also recorded: significantly reduced; also recorded: attenuated
- antiviral effect against influenza [3]: no such antiviral effect
- aqueous solubility [4]: high
- bioavailability [5]: excellent
- safety in human clinical trials [6]: safe
- metabolism of CDP-choline not incorporated into phospholipids [7]: rapidly metabolized into cytidine and choline

From patent publication US20250170246A1 (priority 2022, published 2025)
